Data as given in ChEMBL document CHEMBL6078653, “In Vitro Biological Target Screening and Colloidal Aggregation of Minor Cannabinoids” (J Nat Prod, 2024).

Tests used:
[1] = Aggregation property of compound in PB buffer at pH 7 assessed as critical aggregation concentration by DLS assay; assay type: physicochemical
Homo sapiens [2] = species: Homo sapiens; test: Inhibition of human MDH at 100 to 200 uM incubated for 5 mins in presence of NADH by absorbance based analysis relative to control; settings: dose 100-200 µM
Homo sapiens [3] = species: Homo sapiens; test: Inhibition of human MDH at 100 to 200 uM incubated for 5 mins in presence of NADH and triton X-100 by absorbance based analysis relative to control; settings: dose 100-200 µM
[4] = Inhibition of human MDH incubated for 5 mins in presence of NADH by absorbance based analysis
[5] = molecular target: Sodium-dependent dopamine transporter (Homo sapiens, UniProt Q01959); test: Displacement of [125]RTI-55 from human recombinant DAT receptor expressed in CHO-S cells incubated for 3 hrs by radioligand binding assay; assay type: cell-based
Histamine H1 receptor = Histamine H1 receptor (Homo sapiens, UniProt P35367); test: Displacement of [3H]-Pyrilamine from human recombinant H1 receptor expressed in CHO-K1 cells incubated for 3 hrs by radioligand binding assay; assay type: toxicity, cell-based
Mu-type opioid receptor = Mu-type opioid receptor (Homo sapiens, UniProt P35372); test: Displacement of [3H]-Diprenorphine from human recombinant MOP receptor expressed in CHO-K1 cells incubated for 60 mins by radioligand binding assay; assay type: toxicity, cell-based
[6] = molecular target: Sodium-dependent noradrenaline transporter (Homo sapiens, UniProt P23975); test: Displacement of [125]RTI-55 from human recombinant NET receptor expressed in MDCK cells incubated for 3 hrs by radioligand binding assay; assay type: toxicity, cell-based
[7] = Aggregation property of compound in DMEM assessed as critical aggregation concentration by DLS assay; assay type: physicochemical
[8] = Aggregation property of compound in Tris HCL buffer at pH 7.4 assessed as critical aggregation concentration by DLS assay; assay type: physicochemical
[9] = Aggregation property of compound in PBS buffer at pH 7.4 assessed as critical aggregation concentration by DLS assay; assay type: physicochemical
[10] = molecular target: 5-hydroxytryptamine receptor 2A (Homo sapiens, UniProt P28223); test: Displacement of [3H]ketanserin from human recombinant 5-HT2A receptor expressed in CHO-K1 cells incubated for 60 mins by radioligand binding assay; assay type: toxicity, cell-based
[11] = molecular target: Sodium-dependent serotonin transporter (Homo sapiens, UniProt P31645); test: Displacement of [3H]-Paroxetine from human […] cells incubated for 60 mins by radioligand binding assay; assay type: toxicity, cell-based
[12] = molecular target: Voltage-gated inwardly rectifying potassium channel KCNH2 (Homo sapiens, UniProt Q12809); test: Displacement of [3H]-Dofetilide from recombinant hERG expressed in HEK293 cells incubated for 60 mins by radioligand binding assay; assay type: toxicity, cell-based
Voltage-gated inwardly rectifying potassium channel KCNH2, sequence (Q12809 whole entry): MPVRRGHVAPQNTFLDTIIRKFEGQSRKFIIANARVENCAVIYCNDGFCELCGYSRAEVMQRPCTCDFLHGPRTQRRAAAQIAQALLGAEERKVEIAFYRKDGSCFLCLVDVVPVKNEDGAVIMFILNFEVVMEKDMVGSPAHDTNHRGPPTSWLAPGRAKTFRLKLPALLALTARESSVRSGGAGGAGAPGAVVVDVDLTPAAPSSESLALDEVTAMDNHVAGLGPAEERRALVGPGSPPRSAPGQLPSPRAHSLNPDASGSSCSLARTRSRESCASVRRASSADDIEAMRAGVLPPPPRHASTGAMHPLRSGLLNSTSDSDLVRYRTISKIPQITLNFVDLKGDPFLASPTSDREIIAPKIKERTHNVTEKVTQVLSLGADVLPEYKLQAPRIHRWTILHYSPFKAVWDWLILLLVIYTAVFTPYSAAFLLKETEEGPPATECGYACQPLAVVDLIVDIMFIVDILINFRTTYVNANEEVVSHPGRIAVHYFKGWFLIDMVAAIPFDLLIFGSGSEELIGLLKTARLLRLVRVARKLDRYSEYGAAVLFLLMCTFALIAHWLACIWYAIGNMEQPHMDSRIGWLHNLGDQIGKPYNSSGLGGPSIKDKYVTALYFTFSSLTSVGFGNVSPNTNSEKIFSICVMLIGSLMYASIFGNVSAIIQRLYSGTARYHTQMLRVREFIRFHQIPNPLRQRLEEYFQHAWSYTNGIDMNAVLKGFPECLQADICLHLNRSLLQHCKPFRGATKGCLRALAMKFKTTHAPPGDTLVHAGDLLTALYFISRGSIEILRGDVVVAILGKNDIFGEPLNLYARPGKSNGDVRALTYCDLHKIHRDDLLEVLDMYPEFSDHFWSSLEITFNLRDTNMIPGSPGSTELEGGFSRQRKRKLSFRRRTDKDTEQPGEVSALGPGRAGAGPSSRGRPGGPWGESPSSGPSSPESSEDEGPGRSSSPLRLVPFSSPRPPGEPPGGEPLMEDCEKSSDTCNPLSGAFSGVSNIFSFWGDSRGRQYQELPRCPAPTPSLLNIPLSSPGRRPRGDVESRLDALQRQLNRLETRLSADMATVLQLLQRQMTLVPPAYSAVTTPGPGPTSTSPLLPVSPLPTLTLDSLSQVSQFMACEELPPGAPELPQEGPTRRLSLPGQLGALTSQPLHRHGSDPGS

Mu-type opioid receptor, sequence (P35372 whole entry): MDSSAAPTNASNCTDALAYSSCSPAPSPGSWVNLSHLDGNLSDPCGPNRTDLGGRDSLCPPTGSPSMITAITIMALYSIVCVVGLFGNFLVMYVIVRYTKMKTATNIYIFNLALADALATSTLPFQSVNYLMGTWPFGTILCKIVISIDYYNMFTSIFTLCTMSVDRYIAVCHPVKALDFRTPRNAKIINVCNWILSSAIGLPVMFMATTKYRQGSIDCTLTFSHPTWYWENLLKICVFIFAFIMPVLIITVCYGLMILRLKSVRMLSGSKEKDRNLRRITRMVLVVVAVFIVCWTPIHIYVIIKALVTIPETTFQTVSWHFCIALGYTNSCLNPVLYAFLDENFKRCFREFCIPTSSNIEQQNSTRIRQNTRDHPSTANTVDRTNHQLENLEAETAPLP
Sodium-dependent dopamine transporter, sequence (Q01959 whole entry): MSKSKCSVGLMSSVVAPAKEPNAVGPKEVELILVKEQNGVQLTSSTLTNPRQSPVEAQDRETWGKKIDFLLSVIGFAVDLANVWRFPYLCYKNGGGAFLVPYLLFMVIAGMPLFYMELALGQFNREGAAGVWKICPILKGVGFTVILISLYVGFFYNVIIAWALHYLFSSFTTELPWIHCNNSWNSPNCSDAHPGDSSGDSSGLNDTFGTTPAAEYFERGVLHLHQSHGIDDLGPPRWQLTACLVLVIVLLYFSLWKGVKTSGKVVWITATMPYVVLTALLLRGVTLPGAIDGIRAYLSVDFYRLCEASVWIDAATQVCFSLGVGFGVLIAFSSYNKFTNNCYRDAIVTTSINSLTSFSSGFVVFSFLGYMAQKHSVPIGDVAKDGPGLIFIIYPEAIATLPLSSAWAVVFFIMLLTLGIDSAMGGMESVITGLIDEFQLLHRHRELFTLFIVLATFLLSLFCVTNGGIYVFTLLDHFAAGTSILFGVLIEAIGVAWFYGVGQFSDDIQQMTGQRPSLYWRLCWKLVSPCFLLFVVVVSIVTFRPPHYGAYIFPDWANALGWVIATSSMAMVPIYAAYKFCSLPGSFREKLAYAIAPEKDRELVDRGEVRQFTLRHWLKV
Sodium-dependent noradrenaline transporter, sequence (P23975 whole entry): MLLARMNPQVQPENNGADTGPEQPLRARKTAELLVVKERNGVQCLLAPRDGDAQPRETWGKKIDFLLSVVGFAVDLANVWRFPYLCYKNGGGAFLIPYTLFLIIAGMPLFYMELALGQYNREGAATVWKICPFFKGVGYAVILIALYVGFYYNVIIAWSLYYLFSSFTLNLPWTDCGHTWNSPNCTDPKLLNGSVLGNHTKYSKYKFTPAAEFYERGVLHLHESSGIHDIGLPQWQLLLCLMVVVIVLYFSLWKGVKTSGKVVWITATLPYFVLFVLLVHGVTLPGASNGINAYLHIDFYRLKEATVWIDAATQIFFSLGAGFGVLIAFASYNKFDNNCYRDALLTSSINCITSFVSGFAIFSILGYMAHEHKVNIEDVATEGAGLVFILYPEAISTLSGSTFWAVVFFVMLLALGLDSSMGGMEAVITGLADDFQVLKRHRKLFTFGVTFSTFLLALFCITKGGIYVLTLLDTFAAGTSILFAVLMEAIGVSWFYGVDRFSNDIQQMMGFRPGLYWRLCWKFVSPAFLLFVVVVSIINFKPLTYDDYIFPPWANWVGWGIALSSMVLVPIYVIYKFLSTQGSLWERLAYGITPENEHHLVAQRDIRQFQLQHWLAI
Sodium-dependent serotonin transporter, sequence (P31645 whole entry): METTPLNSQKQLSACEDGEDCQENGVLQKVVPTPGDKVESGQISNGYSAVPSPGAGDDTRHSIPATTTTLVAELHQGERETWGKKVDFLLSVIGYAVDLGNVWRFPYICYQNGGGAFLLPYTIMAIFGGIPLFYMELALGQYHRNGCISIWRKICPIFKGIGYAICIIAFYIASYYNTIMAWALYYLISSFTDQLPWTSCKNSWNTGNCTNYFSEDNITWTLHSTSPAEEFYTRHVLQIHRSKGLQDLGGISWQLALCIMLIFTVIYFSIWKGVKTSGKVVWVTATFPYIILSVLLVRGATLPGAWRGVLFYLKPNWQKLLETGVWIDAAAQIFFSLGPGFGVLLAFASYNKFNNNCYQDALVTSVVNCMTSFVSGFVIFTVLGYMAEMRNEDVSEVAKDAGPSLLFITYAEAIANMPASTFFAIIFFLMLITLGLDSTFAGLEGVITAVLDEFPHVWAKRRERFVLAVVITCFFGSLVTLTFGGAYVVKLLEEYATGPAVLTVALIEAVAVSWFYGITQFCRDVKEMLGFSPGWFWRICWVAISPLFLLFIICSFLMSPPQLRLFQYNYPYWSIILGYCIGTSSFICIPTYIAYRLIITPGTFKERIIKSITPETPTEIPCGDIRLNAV
5-hydroxytryptamine receptor 2A, sequence (P28223 whole entry): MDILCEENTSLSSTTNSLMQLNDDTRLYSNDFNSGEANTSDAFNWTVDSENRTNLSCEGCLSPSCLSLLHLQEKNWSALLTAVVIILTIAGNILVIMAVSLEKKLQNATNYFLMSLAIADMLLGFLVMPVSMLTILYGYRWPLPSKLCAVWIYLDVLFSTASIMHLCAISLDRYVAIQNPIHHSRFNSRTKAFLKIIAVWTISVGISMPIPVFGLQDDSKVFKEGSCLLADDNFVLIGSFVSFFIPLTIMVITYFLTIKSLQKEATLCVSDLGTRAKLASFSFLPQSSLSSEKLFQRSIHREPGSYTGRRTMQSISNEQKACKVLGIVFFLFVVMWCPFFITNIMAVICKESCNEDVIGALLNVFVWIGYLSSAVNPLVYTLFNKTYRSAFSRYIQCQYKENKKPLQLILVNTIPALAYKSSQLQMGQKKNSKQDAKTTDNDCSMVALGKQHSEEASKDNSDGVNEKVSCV
Histamine H1 receptor, sequence (P35367 whole entry): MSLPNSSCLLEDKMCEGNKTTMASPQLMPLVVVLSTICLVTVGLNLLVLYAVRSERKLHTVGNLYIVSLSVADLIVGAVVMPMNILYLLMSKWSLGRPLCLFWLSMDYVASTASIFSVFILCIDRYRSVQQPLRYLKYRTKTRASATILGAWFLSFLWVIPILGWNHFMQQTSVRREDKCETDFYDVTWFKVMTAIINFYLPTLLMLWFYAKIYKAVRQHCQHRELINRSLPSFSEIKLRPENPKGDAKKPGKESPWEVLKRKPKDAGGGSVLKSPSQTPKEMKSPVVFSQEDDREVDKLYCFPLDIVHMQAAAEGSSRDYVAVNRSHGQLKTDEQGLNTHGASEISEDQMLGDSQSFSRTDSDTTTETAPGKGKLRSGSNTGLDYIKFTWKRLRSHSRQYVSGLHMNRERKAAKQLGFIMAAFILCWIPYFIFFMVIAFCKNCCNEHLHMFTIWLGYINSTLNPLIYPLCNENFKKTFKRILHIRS

Structure (SMILES) | CAC [1] [µM] | inhibition (Homo sapiens [2]) [%] | inhibition (Homo sapiens [3]) [%] | IC50 [4] [µM] | IC50 [5] [nM] | IC50 (Histamine H1 receptor) [µM] | IC50 (Mu-type opioid receptor) [µM] | IC50 [6] [nM] | CAC [7] [µM] | CAC [8] [µM] | CAC [9] [µM] | IC50 [10] [µM] | IC50 [11] [µM] | IC50 [12] [µM]
C=C(C)[C@@H]1CCC(C)=C[C@H]1c1c(O)cc(CCCCC)c(C(=O)O)c1O [CANNABIDIOLIC ACID] | 60.3 | 100 | 100 | 46.8 |  |  |  |  |  |  |  |  |  | 
CCCCCc1cc(O)c(C/C=C(\C)CCC=C(C)C)c(O)c1C(=O)O [CANNABIGEROLIC ACID] | 12 | 100 | 100 | 28.8 | 3880 |  |  |  |  |  |  |  |  | 
CCCCCc1cc2c(c(O)c1C(=O)O)C=CC(C)(CCC=C(C)C)O2 (stereo unspecified) | 100 | 100 | 100 | 30.2 |  | 5.7 | 10.8 | 3220 | 100 |  |  |  |  | 
C=C(C)[C@@H]1CCC(C)=C[C@H]1c1c(O)cc(CCC)cc1O [CANNABIDIVARIN] | 31.6 | 100 | 100 | 11 | 3000 |  | 6.42 | 2660 | 100 | 100 | 31.6 |  |  | 
CCCCCc1cc(O)c2c(c1)OC(C)(C)c1ccc(C)cc1-2 [CANNABINOL] | 12.9 | 100 | 100 | 3.2 |  |  | 3.21 | 1150 | 4.8 | 10.4 | 23.1 | 4.89 | 3.35 | 
CCCCCc1cc(O)c(C/C=C(\C)CCC=C(C)C)c(O)c1 [CANNABIGEROL] | 20.9 | 100 | 100 | 8.8 | 950 |  | 1.38 | 2450 | 16.7 | 20.3 | 100 | 1.88 | 1.66 | 3.06
CCCCCc1cc(O)c2c(c1)OC(C)(CCC=C(C)C)C=C2 (stereo unspecified) [CANNABICHROMENE] | 5.6 | 100 | 100 | 1 | 740 |  |  | 1950 | 1.6 | 0.8 | 0.2 |  | 6.26 | 
